Data set [1] deals with T1, MT2 receptor (Homo sapiens, UniProt P49286).
T1 sequence (P49286 1-362): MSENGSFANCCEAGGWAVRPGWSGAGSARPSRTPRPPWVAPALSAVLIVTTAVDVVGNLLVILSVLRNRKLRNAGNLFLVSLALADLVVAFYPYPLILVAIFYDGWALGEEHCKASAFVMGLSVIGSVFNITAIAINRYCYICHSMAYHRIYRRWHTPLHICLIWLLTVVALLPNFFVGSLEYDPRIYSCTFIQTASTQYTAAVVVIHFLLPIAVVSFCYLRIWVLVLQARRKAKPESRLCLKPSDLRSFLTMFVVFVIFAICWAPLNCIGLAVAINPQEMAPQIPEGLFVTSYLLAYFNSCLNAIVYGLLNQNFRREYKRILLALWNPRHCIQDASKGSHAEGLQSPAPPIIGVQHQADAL
Description: Melatonin MT2 receptor binding study (2-[125I]-iodomelatonin competition). The note with it: 2-[125I]-iodomelatonin as radioligand, triplicate. Here is the method: (§1) The MT1 or MT2 receptor binding experiments are carried out using 2-[^125I]-iodomelatonin as reference radioligand. The radioactivity retained is determined using a liquid scintillation counter.
(§2) Competitive binding experiments are then carried out in triplicate using the various test compounds. A range of different concentrations is tested for each compound. The results enable the binding affinities (Ki) of the compounds tested to be determined.

Data set [2] deals with MT1 receptor (Homo sapiens, UniProt P48039). Description: Melatonin MT1 receptor binding study (2-[125I]-iodomelatonin competition). To be noted: 2-[125I]-iodomelatonin as radioligand, triplicate. Here is the method:
as §1, §2

Sequence of MT1 receptor (P48039 whole entry): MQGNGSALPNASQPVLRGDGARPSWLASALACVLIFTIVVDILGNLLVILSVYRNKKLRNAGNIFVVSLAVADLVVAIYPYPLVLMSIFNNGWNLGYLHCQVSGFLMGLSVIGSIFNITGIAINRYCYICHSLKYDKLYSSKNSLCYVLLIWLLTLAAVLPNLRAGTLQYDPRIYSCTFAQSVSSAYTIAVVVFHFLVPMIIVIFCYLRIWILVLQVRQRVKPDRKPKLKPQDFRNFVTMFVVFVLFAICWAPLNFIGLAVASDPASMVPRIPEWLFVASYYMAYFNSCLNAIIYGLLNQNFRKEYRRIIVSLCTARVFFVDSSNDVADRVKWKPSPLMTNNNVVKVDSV

A word on the melting point: it is the temperature of the solid-liquid transition. By Ki is commonly meant the equilibrium dissociation constant of an inhibitor or competing ligand from its target. For the compound `CCCC(=O)NCCc1c[nH]c2ccc(OCCN3CCCCC3)cc12` [Example 3, N-(2-{5-[2-(1-piperidinyl)ethoxy]-1H-indol-3-yl}ethyl)butanamide], the melting point was in the range of 113 to 114 °C. The compound also showed a Ki in data set [1] of 19 nM. In data set [2], this compound displayed a Ki of 11 nM.

The record behind these values is patent US20100204276A1, “INDOLE COMPOUNDS, A PROCESS FOR THEIR PREPARATION AND PHARMACEUTICAL COMPOSITIONS CONTAINING THEM” (LES LABORATOIRES SERVIER, priority 2006, published 2010).
